Blank lines part the entries; values can stand above or below the compound they belong to. Activity calls are given as the source filed them.
Assays:
[1] = HIV-1 Vif–A3G interaction blockers – biochemical, TR-FRET, GST-Vif 1-94, biotin-A3G peptide, dose response retest, primary screen (AID 1117319); assay type: functional;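 note: TR-FRET signal of purified GST-Vif binding a biotinylated A3G peptide; inhibitors lower the FRET signal by blocking Vif and A3G binding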
[2] = cytotoxicity toward Colo320 cells – cell-based, CellTiter-Glo luminescence, IC50, dose response (AID 1117334); assay type: functional; conditions: COLO 320
[3] = rise of 4N DNA cells, HeLa – IC50, dose response (AID 1117351); assay type: functional, cell-based
[4] = RKO cell viability reduction, dose response, CellTiter-Glo luminescence (AID 1117322); assay type: functional
[5] = cytotoxicity toward HT-29 cells – cell-based, CellTiter-Glo luminescence, IC50, dose response (AID 1117330); assay type: functional
[6] = rise of 2N DNA cells, HeLa – IC50, dose response (AID 1117349); assay type: functional, cell-based
[7] = SNU-C1 cell viability reduction, dose response, CellTiter-Glo luminescence (AID 1117323); assay type: functional, cell-based
[8] = Reduced DLD-1 viability, concentration-response, CellTiter-Glo luminescence (AID 1117352); assay type: functional
[9] = CellTiter-Glo luminescence survival assay, SW480 colon tumor line, concentration-response curve, half-maximal inhibitory concentration (AID 1117338); assay type: functional
[10] = cytotoxicity toward HCT116 cells – cell-based, CellTiter-Glo luminescence, IC50, dose response (AID 1117332); assay type: functional; conditions: HCT-116
[11] = HCT116 cell viability decrease, GSK3B pretreatment – CellTiter-Glo, IC50, dose response (AID 1117339); assay type: functional; conditions: HCT-116
[12] = viability loss in HEK293 cells – cell-based, plate reader, cherry-picked samples, cytotoxicity control, dose response (AID 743446); assay type: functional
[13] = toxicity toward HepG2 liver cells – cell-based, plate reader, cherry-pick, antagonist series, cytotoxicity control, dose response (AID 743416); assay type: functional
[14] = biological target: T1, Acyl-homoserine lactone acylase PvdQ (Pseudomonas aeruginosa (strain LESB58), UniProt Q9I194); assay: PvdQ acylase enzyme activity blockers – biochemical, fluorescence, plate reader and imaging, cherry-picks, dose response (AID 493231)
T1 sequence (Q9I194 whole entry): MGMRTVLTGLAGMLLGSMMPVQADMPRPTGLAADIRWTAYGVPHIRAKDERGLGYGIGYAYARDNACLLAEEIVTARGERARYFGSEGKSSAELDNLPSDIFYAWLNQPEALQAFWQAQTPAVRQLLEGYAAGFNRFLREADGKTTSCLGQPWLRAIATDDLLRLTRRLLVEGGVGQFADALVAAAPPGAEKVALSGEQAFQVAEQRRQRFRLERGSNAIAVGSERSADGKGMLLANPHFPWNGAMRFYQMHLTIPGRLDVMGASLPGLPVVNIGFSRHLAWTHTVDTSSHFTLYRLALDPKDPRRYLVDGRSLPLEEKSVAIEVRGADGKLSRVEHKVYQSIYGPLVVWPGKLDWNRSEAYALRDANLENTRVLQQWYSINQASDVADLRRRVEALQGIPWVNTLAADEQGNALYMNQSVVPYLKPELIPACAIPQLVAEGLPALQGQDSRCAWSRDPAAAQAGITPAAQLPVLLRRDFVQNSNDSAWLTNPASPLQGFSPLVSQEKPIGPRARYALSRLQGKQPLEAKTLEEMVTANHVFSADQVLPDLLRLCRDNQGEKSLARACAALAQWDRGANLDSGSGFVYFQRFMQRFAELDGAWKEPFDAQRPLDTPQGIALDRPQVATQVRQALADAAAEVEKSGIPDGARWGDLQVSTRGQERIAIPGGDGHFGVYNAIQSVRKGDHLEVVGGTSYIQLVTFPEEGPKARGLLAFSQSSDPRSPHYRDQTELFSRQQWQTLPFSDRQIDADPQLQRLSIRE

[15] = blockade of melanocortin 4 receptor signaling – cell-based, plate reader, cherry pick, counter-screen for LGR2 antagonist project, dose response (AID 743444); assay type: functional;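 note: transfected HEK 293 cells stimulated with alpha-MSH peptide; potency of inhibitors of the alpha-MSH evoked signal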
[16] = A549 cell cytotoxicity, dose response, cytotoxicity control, plate reader, cherry-pick, antagonist series (AID 743412); assay type: functional, cell-based
[17] = blockers of bursicon-stimulated LGR2 cAMP reporter – cell-based, HEK293, CRE-luciferase reporter, cherry pick, set 2, dose response (AID 743343); assay type: functional;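 note: transfected cells were stimulated with diluted bursicon conditioned medium after compound addition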
[18] = biological target: Tyrosyl-DNA phosphodiesterase 2 (Homo sapiens, UniProt O95551); assay: potency against TDP2 phosphodiesterase activity – biochemical, epi absorbance, IC50, dose response (AID 743297)
Sequence of Tyrosyl-DNA phosphodiesterase 2 (O95551 whole entry): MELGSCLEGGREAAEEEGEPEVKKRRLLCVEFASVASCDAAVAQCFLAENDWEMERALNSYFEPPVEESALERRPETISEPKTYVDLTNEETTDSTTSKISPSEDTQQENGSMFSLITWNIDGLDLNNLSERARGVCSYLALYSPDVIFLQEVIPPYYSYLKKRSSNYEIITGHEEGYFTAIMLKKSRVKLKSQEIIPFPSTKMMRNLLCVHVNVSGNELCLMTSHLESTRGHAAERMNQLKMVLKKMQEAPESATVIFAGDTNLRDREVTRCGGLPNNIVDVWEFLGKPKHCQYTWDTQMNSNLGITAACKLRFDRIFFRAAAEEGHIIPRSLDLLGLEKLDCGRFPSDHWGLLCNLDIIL

[19] = biological target: T2, Zinc finger protein mex-5 (Caenorhabditis elegans, UniProt Q9XUB2); assay: potency of MEX-5 RNA-binding blockers – biochemical, C. elegans, fluorescence polarization, dose response (AID 1960)
T2 sequence (Q9XUB2 whole entry): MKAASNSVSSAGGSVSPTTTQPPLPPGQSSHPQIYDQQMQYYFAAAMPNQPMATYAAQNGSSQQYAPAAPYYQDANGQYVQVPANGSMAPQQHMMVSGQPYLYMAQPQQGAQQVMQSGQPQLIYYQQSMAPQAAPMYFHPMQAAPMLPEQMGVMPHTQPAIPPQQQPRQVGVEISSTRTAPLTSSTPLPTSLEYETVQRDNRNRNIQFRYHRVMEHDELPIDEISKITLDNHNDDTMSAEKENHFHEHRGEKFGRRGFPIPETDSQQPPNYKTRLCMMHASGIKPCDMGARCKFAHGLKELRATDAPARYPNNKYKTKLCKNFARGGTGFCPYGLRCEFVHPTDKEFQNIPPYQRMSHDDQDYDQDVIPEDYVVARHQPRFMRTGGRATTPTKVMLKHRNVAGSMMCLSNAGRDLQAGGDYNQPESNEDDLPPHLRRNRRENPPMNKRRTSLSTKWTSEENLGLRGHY

[20] = biological target: T3, RNA-binding protein pos-1 (Caenorhabditis elegans, UniProt G5EF15); assay: disruptors of C. elegans POS-1 RNA interaction – biochemical, fluorescence polarization, dose response (AID 1964);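 note: purified POS-1 fused to maltose binding protein made in E. coli; potency of compounds blocking POS-1 binding to fluorescent RNA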
T3 sequence (G5EF15 whole entry): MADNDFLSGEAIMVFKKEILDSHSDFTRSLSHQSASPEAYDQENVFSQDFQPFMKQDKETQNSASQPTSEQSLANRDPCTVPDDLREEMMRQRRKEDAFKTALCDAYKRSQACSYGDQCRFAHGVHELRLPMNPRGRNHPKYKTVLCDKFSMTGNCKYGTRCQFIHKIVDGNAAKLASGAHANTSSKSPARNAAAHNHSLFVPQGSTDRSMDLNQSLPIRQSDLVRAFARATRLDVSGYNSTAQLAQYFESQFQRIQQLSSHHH

[21] = biological target: T4, Oxysterols receptor LXR-beta (Homo sapiens, UniProt P55055); assay type: functional, cell-based;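 note: Cell-based luminescence dose-response assay of agonist activity at LXR, run as a confirmatory counterscreen to a daf-12 agonist screen; HEK293 cells with Gal4-LXR fusion and GAL4-driven luciferase reporter; agonist potency from rising luciferase signal of a Gal4-LXR reporter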
T4 sequence (P55055 whole entry): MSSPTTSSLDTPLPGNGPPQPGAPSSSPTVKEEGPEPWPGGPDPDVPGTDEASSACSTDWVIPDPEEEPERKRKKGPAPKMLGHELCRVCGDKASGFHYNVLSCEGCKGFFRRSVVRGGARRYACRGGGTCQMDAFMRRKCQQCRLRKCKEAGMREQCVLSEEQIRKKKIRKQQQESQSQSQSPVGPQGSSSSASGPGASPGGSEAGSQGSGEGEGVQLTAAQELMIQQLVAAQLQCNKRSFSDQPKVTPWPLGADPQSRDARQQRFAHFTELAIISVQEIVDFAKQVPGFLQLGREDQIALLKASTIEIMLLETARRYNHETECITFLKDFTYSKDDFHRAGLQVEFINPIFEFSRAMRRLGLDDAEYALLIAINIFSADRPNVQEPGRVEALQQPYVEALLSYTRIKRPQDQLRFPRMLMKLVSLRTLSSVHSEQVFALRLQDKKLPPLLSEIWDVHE

Albumin = Albumin (Bos taurus, UniProt P02769); assay: Counterscreen for inhibitors of T-cell receptor (TCR)-CD3 interaction: Fluorescence-based biochemical high throughput dose response assay to identify inhibitors of T-cell receptor (TCR)-CD3 interaction using a TAMRA-labeled BSA probe.; assay type: functional
Sequence of Albumin (P02769 whole entry): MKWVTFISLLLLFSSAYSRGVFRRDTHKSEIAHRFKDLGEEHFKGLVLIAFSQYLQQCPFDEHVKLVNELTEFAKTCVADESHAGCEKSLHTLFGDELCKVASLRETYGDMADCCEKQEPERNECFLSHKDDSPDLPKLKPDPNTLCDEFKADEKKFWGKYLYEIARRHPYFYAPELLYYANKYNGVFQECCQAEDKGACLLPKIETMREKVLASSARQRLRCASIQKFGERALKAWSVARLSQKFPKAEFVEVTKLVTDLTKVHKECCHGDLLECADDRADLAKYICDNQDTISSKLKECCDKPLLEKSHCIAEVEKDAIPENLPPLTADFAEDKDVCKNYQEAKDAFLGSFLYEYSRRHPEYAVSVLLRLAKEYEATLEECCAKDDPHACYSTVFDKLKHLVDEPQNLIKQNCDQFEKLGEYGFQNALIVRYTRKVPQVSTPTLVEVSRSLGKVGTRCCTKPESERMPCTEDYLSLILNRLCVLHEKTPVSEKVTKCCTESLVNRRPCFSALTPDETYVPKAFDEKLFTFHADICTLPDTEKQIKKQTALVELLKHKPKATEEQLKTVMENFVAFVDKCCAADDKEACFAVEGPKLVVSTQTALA

SMILES: CC(C)=CCOc1ccc(/C=C/C(=O)c2ccc(OCC=C(C)C)cc2OCC(=O)O)cc1 [SOFALCONE]
- IC50 [2]: 1.55 µM (active)
- IC50 [3]: > 10 µM (inactive)
- IC50 [4]: 5.53 µM (inactive)
- IC50 [5]: 5.4 µM (inactive)
- IC50 [6]: > 10 µM (inactive)
- IC50 [7]: 7.44 µM (inactive)
- IC50 [8]: 5.36 µM (inactive)
- IC50 [9]: 2.92 µM (active)
- IC50 [10]: > 6.67 µM (inactive)
- IC50 [11]: 3.04 µM (active)

SMILES: COc1ccc(-c2nc3ccccc3s2)cc1
- AC50 [12]: > 52 µM (inactive)
- AC50 [13]: > 52 µM (inactive)
- AC50 [14]: > 100 µM (inactive)
- AC50 [15]: 2.75 µM (active)
- AC50 [16]: 42.9 µM (active)
- AC50 [17]: 2.17 µM (active)

SMILES: O=P1(O)C=C(c2ccccc2)OC(c2ccccc2)=C1
- EC50 (cells): > 67.5 µM (inactive)
- EC50 [21]: > 67.5 µM (inactive)

Now from value to compound:

- IC50 [1]: > 100 µM (active)
SMILES: CN(C)c1ccc(/C=C/C#N)cc1

- IC50 [18]: 106 µM (inactive)
- EC50 [19]: 32.5 µM (active)
- EC50 [20]: 89.8 µM (active)
SMILES: CN(C)c1cccc2c1c(NS(=O)(=O)c1cn(C)cn1)nn2C

- IC50 (Albumin): > 94.1 µM (inactive)
SMILES: O=C(NNC(=O)c1ccc2ccccc2c1O)NC1CCCCC1

- IC50 [1]: > 100 µM (active)
SMILES: Cn1nnc(NC(=O)c2cccc(F)c2)n1
